{
  "source": "patent US12295937B2",
  "about": "“Psychoactive medicines and their use for treating psychiatric and neurological conditions and disorders” (Transcend Therapeutics, Inc., priority 2021, dated 2025)",
  "key": {"168 GPCRs [1]": {"target": "T1, 168 GPCRs (Homo sapiens, UniProt P49238)", "T1 construct": "host or cells: PathHunter cell lines", "assay": "β-arrestin GPCR screen (PathHunter / GPCRmax), agonist mode", "format": "cell-based", "conditions": "CX3CR1, 1 uM", "procedure": "(§1) For agonist determination, cells were incubated with sample to induce response. […] Vehicle concentration was 1%."}, "168 GPCRs [2]": {"target": "T2, 168 GPCRs (Homo sapiens, UniProt P32239)", "T2 construct": "host or cells: PathHunter cell lines", "T2 sequence (P32239 whole entry)": "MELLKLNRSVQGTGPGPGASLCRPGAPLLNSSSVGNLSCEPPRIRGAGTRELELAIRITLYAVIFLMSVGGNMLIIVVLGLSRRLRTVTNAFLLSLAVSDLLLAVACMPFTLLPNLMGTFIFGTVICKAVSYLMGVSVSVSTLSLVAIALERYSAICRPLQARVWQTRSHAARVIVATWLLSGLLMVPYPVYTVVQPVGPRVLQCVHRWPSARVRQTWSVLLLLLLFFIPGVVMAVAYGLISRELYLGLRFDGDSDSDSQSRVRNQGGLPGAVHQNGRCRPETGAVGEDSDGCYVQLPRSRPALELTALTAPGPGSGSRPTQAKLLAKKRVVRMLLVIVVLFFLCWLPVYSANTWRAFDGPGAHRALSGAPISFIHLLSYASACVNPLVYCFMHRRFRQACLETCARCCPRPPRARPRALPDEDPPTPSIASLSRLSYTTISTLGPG", "assay": "β-arrestin GPCR screen (PathHunter / GPCRmax), agonist mode", "format": "cell-based", "conditions": "CCKBR, 1 uM", "procedure": "as §1"}, "168 GPCRs [3]": {"target": "T3, 168 GPCRs (Homo sapiens, UniProt Q99788)", "T3 construct": "host or cells: PathHunter cell lines", "T3 sequence (Q99788 whole entry)": "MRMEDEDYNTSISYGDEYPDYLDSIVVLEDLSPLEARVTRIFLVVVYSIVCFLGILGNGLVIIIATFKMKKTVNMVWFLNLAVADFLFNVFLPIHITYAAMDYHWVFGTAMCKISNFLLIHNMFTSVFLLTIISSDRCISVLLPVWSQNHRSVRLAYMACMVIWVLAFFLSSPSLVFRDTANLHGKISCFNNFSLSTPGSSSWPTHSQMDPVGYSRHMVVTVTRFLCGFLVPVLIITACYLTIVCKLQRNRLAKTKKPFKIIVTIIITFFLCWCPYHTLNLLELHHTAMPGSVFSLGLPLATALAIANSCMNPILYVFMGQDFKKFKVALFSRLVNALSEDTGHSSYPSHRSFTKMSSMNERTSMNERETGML", "assay": "β-arrestin GPCR screen (PathHunter / GPCRmax), agonist mode", "format": "cell-based", "conditions": "CMKLR1, 1 uM", "procedure": "as §1"}, "168 GPCRs [4]": {"tested_on": "168 GPCRs", "assay": "β-arrestin GPCR screen (PathHunter / GPCRmax), agonist mode", "format": "cell-based", "conditions": "CCR, 10 uM", "procedure": "as §1"}, "168 GPCRs [5]": {"target": "T4, 168 GPCRs (Homo sapiens, UniProt P35408)", "T4 construct": "host or cells: PathHunter cell lines", "T4 sequence (P35408 whole entry)": "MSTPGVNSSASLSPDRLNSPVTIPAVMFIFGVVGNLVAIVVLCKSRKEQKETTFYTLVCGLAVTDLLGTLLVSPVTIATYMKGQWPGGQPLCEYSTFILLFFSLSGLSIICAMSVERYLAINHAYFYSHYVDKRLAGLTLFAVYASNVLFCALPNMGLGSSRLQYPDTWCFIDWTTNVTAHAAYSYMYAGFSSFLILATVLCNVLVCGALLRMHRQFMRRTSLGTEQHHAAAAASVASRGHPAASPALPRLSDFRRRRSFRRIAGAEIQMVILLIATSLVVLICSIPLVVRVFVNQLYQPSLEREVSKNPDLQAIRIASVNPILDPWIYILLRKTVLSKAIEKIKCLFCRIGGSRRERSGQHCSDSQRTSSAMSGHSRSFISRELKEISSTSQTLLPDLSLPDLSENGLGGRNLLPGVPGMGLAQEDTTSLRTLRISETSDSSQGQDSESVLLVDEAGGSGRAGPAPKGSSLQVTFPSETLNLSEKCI", "assay": "β-arrestin GPCR screen (PathHunter / GPCRmax), agonist mode", "format": "cell-based", "conditions": "PTGER4, 1 uM", "procedure": "as §1"}, "168 GPCRs [6]": {"target": "T5, 168 GPCRs (Homo sapiens, UniProt P34998)", "T5 construct": "host or cells: PathHunter cell lines", "T5 sequence (P34998 24-415)": "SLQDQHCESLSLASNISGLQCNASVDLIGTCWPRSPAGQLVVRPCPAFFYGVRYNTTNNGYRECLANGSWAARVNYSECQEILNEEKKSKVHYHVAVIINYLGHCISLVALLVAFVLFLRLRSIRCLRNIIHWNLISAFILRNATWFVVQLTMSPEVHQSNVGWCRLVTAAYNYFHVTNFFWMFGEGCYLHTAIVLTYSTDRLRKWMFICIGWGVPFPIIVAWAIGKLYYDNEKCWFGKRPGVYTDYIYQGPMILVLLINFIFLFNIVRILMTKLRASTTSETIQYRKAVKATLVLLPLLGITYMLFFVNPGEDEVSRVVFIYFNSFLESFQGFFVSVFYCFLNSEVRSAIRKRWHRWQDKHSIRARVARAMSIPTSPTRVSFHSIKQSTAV", "assay": "β-arrestin GPCR screen (PathHunter / GPCRmax), agonist mode", "format": "cell-based", "conditions": "CRHR1, 1 uM", "procedure": "as §1"}, "168 GPCRs [7]": {"target": "T6, 168 GPCRs (Homo sapiens, UniProt P32249)", "T6 construct": "host or cells: PathHunter cell lines", "T6 sequence (P32249 whole entry)": "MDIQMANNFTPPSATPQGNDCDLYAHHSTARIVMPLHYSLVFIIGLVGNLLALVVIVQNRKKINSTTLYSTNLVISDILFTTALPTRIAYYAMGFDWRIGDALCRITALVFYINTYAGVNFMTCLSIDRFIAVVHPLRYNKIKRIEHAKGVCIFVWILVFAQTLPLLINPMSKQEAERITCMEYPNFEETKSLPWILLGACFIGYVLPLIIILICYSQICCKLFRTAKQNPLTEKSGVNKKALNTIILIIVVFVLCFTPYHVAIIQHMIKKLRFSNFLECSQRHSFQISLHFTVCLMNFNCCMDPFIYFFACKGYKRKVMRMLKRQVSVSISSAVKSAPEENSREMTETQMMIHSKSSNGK", "assay": "β-arrestin GPCR screen (PathHunter / GPCRmax), agonist mode", "format": "cell-based", "conditions": "EBI2, 1 uM", "procedure": "as §1"}, "serotonin transporter": {"target": "serotonin transporter (Homo sapiens, UniProt P31645)", "sequence (P31645 whole entry)": "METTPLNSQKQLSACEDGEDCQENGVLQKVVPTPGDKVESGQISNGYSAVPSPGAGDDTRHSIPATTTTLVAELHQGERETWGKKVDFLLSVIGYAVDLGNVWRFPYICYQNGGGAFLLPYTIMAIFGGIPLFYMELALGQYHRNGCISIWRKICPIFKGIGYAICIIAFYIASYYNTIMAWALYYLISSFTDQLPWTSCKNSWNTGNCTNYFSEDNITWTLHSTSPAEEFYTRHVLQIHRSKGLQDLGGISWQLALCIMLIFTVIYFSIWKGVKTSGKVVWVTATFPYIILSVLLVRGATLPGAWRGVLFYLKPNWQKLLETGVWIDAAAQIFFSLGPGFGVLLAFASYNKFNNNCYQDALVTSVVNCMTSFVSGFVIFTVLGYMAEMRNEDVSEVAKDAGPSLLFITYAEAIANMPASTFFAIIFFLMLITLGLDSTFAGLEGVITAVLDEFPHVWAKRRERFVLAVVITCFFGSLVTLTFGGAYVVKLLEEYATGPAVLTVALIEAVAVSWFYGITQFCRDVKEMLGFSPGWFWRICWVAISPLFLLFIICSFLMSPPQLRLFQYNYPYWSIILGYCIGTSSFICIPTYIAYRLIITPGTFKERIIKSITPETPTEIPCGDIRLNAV", "conditions": "cited from earlier work"}, "SERT": {"target": "SERT (Rattus norvegicus, UniProt P31652)", "sequence (P31652 whole entry)": "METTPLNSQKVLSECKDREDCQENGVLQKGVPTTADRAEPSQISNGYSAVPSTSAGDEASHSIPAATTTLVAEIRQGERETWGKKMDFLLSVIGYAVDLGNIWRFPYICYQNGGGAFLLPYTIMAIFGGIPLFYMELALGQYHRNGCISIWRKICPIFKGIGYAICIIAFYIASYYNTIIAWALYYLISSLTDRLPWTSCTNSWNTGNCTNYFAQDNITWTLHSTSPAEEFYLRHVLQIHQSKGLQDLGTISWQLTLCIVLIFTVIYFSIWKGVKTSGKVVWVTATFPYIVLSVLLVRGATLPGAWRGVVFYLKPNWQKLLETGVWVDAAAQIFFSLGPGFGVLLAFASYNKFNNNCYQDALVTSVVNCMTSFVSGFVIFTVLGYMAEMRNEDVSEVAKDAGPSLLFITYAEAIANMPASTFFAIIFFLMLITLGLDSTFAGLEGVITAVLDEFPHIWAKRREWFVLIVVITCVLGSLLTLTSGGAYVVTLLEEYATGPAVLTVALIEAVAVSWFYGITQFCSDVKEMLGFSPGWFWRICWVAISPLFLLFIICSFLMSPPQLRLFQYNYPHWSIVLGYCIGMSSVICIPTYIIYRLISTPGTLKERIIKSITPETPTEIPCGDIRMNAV", "assay": "[3H]5-HT release from rat brain synaptosomes", "format": "biochemical", "design": "from tissue; synaptosomes for uptake and release", "conditions": "rat brain synaptosomes; read-out: Neurotransmitter release: EC50", "procedure": "(§2) Test compounds and synaptosomes were prepared as described for uptake inhibition assays. Synaptosomes treated with [^3H]5-HT, [^3H]DA or [^3H]NE were loaded onto filter chambers containing GF/C filters and placed in a superfusion system. Oxygenated Krebs buffer was perfused through the chambers at a rate of 1.5 mL/minute at 35° C. using either an 8-channel or a 12-channel peristaltic pump. Trapped air bubbles were removed from the filters prior to collecting fractions to ensure an even flow over the synaptosomal bed. After a superfusion period of 45 minutes, 2 basal fractions were collected followed by 6 fractions following the addition of the test drug. […] Scintillation cocktail was added, and the filters counted to determine residual radioactivity. Drug-evoked release of neurotransmitter was calculated by subtracting the average of the two basal fractions (collected prior to the drug addition), from the four fractions collected in the presence of drug. The drug-evoked release was then expressed as a percentage of the basal release. Potassium-evoked release was calculated by subtracting the average of two fractions collected prior to the addition of high KCl buffer from that in the two fractions following addition of high KCl buffer. Potassium-stimulated release was calculated as a percentage of basal release. […]"}, "[8]": {"tested_on": "myelin basic protein (MBP)", "assay": "Myelin basic protein immunohistochemistry in amygdala", "format": "in vivo, rat", "conditions": "10 mg/kg IP, 24 h", "procedure": "Immunohistochemistry: The in-life portion of the study was conducted at WuXi Apptec (Cranbury, NJ). Sectioning and staining of brains took place at Neuroscience Associates (NSA, Knoxville, TN). […] Brains were post-fixed in PFA before shipment to NSA for processing and staining. Hemisected brains were mounted, sectioned and stained using standard protocols with myelin-basic protein primary antibody (MBP SMI-99, 1:5000, Biolegend, San Diego, CA) and anti-mouse biotinylated secondary antibody (BA-2001, Vector Laboratories, Newark, CA). Slides were imaged using a Huron Digital Pathology TissueScope LE120 whole slide scanning system. 20× objective was used with a 0.4 μm/pixel resolution."}, "168 GPCRs [9]": {"target": "168 GPCRs (Homo sapiens, UniProt Q16602)", "sequence (Q16602 23-461)": "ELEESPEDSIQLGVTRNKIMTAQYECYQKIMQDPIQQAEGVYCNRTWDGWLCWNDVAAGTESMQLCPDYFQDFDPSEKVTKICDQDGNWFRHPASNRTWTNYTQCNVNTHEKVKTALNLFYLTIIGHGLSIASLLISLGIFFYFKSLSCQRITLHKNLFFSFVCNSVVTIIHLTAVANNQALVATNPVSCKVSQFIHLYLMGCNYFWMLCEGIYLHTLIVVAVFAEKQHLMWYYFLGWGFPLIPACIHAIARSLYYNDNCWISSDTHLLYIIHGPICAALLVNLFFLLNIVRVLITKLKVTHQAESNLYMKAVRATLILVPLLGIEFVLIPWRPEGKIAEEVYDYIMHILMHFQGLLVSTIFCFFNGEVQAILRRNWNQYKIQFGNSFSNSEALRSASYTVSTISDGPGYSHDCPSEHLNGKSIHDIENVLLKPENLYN", "assay": "β-arrestin GPCR screen (PathHunter / GPCRmax), agonist mode", "format": "cell-based", "design": "host or cells: PathHunter cell lines", "conditions": "CALCRL-RAMP3, 1 uM", "procedure": "as §1"}, "[10]": {"assay": "Methylone case series, Cohorts 1 and 2 (CGI-S/CGI-I, safety)", "format": "in vivo, human", "procedure": "CGI-S scale was also evaluated in a subset of patients from Cohort 2 post-treatment. Cohort 2 was evaluated for any observed or reported safety events following a single dosing session. Clinical Global Improvement Scale • Clinical Global Impressions (CGI) scale includes 2 components: CGI-S (“severity”) and CGI-I (“improvement”).\nOnly sessions that included methylone dosing were counted as dosing sessions.\nSingle sessions occurred for 8 of the 28 cases with no booster in two of these cases. In the remainder of the cases, multiple sessions occurred, and booster doses were used in all or some of the remaining patients ([…]) with multiple booster doses used in some or all of the sessions in 15 patients."}, "NET": {"target": "NET (Rattus norvegicus, UniProt Q63380)", "sequence (Q63380 1-617)": "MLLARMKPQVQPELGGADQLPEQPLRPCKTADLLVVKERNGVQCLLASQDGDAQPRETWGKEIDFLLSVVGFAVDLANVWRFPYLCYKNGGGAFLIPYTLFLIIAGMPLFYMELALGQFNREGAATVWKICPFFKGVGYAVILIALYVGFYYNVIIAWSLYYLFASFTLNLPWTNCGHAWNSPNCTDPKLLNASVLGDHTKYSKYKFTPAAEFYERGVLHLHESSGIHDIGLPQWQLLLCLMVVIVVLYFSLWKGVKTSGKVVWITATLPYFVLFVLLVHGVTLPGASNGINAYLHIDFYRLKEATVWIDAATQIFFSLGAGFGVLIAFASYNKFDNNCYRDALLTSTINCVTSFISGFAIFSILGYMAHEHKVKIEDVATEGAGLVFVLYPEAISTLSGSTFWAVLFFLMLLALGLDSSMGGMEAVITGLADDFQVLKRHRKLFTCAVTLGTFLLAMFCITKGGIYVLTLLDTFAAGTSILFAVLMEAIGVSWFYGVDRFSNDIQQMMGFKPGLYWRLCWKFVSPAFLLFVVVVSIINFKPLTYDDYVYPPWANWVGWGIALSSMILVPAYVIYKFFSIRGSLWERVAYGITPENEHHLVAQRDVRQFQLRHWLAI", "assay": "[3H]NE release from rat brain synaptosomes", "format": "biochemical", "design": "from tissue; synaptosomes for uptake and release", "conditions": "rat brain synaptosomes; read-out: Neurotransmitter release: EC50", "procedure": "as §2"}, "5HT2A receptor": {"target": "T7, 5HT2A receptor (Homo sapiens, UniProt P28223)", "T7 construct": "host or cells: PathHunter cell lines", "T7 sequence (P28223 whole entry)": "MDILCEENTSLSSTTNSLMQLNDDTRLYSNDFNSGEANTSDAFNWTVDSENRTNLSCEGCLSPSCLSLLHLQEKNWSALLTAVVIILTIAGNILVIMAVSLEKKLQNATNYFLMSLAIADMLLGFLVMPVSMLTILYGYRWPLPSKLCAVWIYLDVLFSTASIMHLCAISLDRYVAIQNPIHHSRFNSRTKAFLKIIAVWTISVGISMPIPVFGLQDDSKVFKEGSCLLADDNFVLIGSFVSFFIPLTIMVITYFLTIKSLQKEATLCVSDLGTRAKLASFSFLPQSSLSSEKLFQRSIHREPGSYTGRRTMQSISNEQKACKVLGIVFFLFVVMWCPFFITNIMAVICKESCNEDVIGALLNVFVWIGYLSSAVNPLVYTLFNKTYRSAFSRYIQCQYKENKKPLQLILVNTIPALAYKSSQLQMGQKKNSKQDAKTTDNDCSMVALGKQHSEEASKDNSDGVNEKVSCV", "assay": "GPCRmax screen, agonist mode, 5HT2A", "format": "cell-based", "conditions": "1 or 10 mM"}},
  "note": "Marks after values point to notes of the source that are not given here.",
  "data": [
    {"smiles": "CNC(C)C(=O)c1ccc2c(c1)OCO2", "note": "(stereo not shown) [Methylone, 3,4-methylenedioxy-N-methylcathinone]", "values": [
      {"measurement": "% Activity", "setting": "168 GPCRs [1]", "value": 0, "unit": "%"},
      {"measurement": "% Activity", "setting": "168 GPCRs [2]", "value": "−1", "unit": "%"},
      {"measurement": "% Activity", "setting": "168 GPCRs [3]", "value": "−0.2", "unit": "%"},
      {"measurement": "% Activity", "setting": "168 GPCRs [4]", "value": 3.6, "unit": "%"},
      {"measurement": "% Activity", "setting": "168 GPCRs [5]", "value": 2.8, "unit": "%"},
      {"measurement": "% Activity", "setting": "168 GPCRs [6]", "value": 1.4, "unit": "%"},
      {"measurement": "% Activity", "setting": "168 GPCRs [7]", "value": 0.5, "unit": "%"},
      {"measurement": "Affinity for the serotonin transporter, times lower compared to MDMA", "setting": "serotonin transporter", "value": 3, "unit": "×"},
      {"measurement": "EC50", "setting": "SERT", "value": 620, "unit": "nM"},
      {"measurement": "MBP in basolateral and central nuclei of the amygdala vs. vehicle", "setting": "[8]", "value": "significant reduction in MBP"},
      {"measurement": "% Activity", "setting": "168 GPCRs [9]", "value": "−2.2", "unit": "%"},
      {"measurement": "Adverse effects in healthy subjects", "setting": "[10]; Cohort 1, 4 subjects, single session, total dose 790 or 870 mg", "value": "no adverse effects or after-effects were observed or reported"},
      {"measurement": "Cases well tolerated with no safety events reported", "setting": "[10]; Cohort 2, 25 of 28 cases", "value": 89.3, "unit": "%"},
      {"measurement": "Patients with initial improvement at the first methylone session", "setting": "[10]; Cohort 2, 25 of 28 patients", "value": "~90", "unit": "%"},
      {"measurement": "Number of cases with CGI-I 2", "setting": "[10]; Cohort 2, N = 28", "value": 13},
      {"measurement": "Number of cases with CGI-I 3", "setting": "[10]; Cohort 2, N = 28", "value": 4},
      {"measurement": "Number of cases with CGI-I 4", "setting": "[10]; Cohort 2, N = 28", "value": 0},
      {"measurement": "Number of cases with CGI-I 5", "setting": "[10]; Cohort 2, N = 28", "value": 0},
      {"measurement": "Number of cases with CGI-I 6", "setting": "[10]; Cohort 2, N = 28", "value": 0},
      {"measurement": "Number of cases with CGI-I 7", "setting": "[10]; Cohort 2, N = 28", "value": 0},
      {"measurement": "Number of cases with CGI-I 1 (highest observed magnitude of improvement)", "setting": "[10]; Cohort 2, N = 28 PTSD/MDD patients, oral", "value": "11*"},
      {"measurement": "Patients achieving CGI-I 1 or 2", "setting": "[10]; Cohort 2 overall", "value": 86, "unit": "%"},
      {"measurement": "Cases reporting a durable effect", "setting": "[10]; MDD subset, 6 narratives with durability information", "value": 5},
      {"measurement": "Patients achieving CGI-I 1 or 2", "setting": "[10]; MDD subset, 8/8 patients", "value": 100, "unit": "%"},
      {"measurement": "Patients achieving CGI-I 1 or 2", "setting": "[10]; PTSD subset, 16/20 patients", "value": 80, "unit": "%"},
      {"measurement": "Case narratives reporting a durable effect", "setting": "[10]; PTSD subset, 16 narratives with durability information", "value": 15},
      {"measurement": "EC50", "setting": "NET", "value": 330, "unit": "nM"},
      {"measurement": "Agonist % activity", "setting": "5HT2A receptor", "value": "no agonist or antagonist activity"}
    ]}
  ]
}
